Reference: paper PMC8521653 (ACS Medicinal Chemistry Letters, 2021)
Marks after values point to notes of the source that are not given here. Peptide text beside a SMILES is read from it. * marks the point of attachment. Cbz = O=C(OCc1ccccc1)*

Key:
[1] = test system: PREP-catalyzed α-synuclein dimerization in N2A cells; experiment: αSyn dimerization, protein fragment complementation assay (PCA) in N2A cells; type: cell-based; conditions: for increase of aSyn dimerization compared to DMSO control: 10 µM proteasome inhibitor, positive control, % increase; for activity at 10 µM: Mus musculus, luminescence signal percentage of DMSO control with SEM, N2A cells
Method: The effect of the compounds on autophagy was determined by using GFP-LC3B-RFP expressing HEK-293 cells.[15],[34] The effect on αSyn dimerization was evaluated with a protein fragment complementation assay (PCA) by using N2A cells.[10],[15],[16] The increase in autophagic flux was measured as a decrease in GFP signal due to increased degradation of GFP-LC3B, and the decrease in αSyn dimerization was measured as a decrease in luminescence, both compared with DMSO (Table 1). […] Rapamycin and starvation are known to induce autophagy, lowering the fluorescence to 65–70% in our assays, and were therefore used as reference compounds for this. Test compounds were assayed at 10 μM concentration with 0.1% DMSO. A graphical representation of the mean values (± SEM) can be seen in the Supporting Information (Figure S1).
Measuring biological activity […]
α-Synuclein Dimerization. αSyn dimerization was assessed by using PCA, which was carried out as described previously in Kilpeläinen et al.1 In short, N2A cells were seeded on poly-L-lysine-coated 96-well plates (Isoplate™ white wall, PerkinElmer Life Sciences) at the density of 13 000 cells/well. 24 h post-plating, reporter plasmids were transfected with 100 ng of total plasmid DNA per well. N2A cells were transfected with 25 ng of both αSyn-Gluc1 and αSyn-Gluc2 and 50 ng mock-plasmid or non-tagged human PREP expression plasmid 50 ng/well. Lipofectamine 3000 (Thermo Fischer Scientific) was used as the transfection reagent. 100 µL normal growth medium was added to all wells at 24 h post-transfection. 48 hours post-transfection medium was changed to phenol red free DMEM without serum containing the tested compounds at 10 µM concentration, with 0,1% DMSO as vehicle control. Proteasome inhibitors lactacystin (AG Scientific) at 10 µM and MG-132 (Enzo Life Sciences) at 10 µM served as a positive control. The PCA signal was assessed by injecting 25 µL of native coelenterazine (Nanolight Technology) in phenol red free DMEM per well (final concentration 6 µM). The emitted luminescence was read using Varioskan LUX multimode microplate reader (Thermo Scientific). For each experimental condition, 4 replicate wells were used in each experiment, and at least 3 separate experiments for each treatment except for 15c which had 2 separate experiments. […]

[2] = target: T1, purified recombinant porcine PREP (Sus scrofa, UniProt P23687); experiment: Inhibition of the proteolytic activity of PREP, microplate assay with Suc-Gly-Pro-AMC substrate; type: biochemical; conditions: for PREP activity at 1 nM inhibitor concentration compared to control: remaining activity; for IC50: Suc-Gly-Pro-AMC, 30 °C, pH 7.0, 95% CI in brackets
T1 construct: made in house; host or cells: E. coli
Method: Inhibition of the proteolytic activity (IC50) of PREP was determined using purified recombinant porcine PREP[25] as previously described.[16]
Measuring biological activity
Inhibitory Activity. The IC 50 values for compounds were determined in the microplate assay procedure described in Kilpeläinen et al.1 Porcine PREP cDNA was expressed in E.coli cells and purified as described in Venäläinen et al.3 The enzyme dilution was preincubated with 0.1 M sodium–potassium phosphate buffer (75 µL, pH 7.0) containing the compounds at desired concentrations in 30 °C for 30 min. The final concentration of the compounds in the assay mixture varied from 1 mM-1 nM and the final concentration of the enzyme was approximately 0.1 nM as measured by Bradford´s method. The enzyme reaction was carried out by adding 25 µL of 4 mM Suc-Gly-Pro-AMC substrate dissolved in 0.1 M sodium–potassium phosphate buffer (pH 7.0) into the assay mixture and incubating at 30° C for 60 min. The reaction was terminated by adding […] of 1 M sodium acetate buffer (pH 4.2). Formation of AMC was measured with Victor2 multilabel counter (PerkinElmer; excitation/emission 360 nm/ 460 nm), with a standard curve of 0.1-5 nM AMC in 0.1 M sodium–potassium phosphate buffer present. All activity measurements were made at least in triplicate. The inhibitory activities (percent of control) were plotted against the log concentration of the compound, and the IC50-value was determined by non-linear regression utilizing GraphPad Prism 7.0 software. […]

[3] = test system: GFP-LC3B-RFP expressing HEK-293 cells; experiment: Autophagic flux, GFP signal in GFP-LC3B-RFP expressing HEK-293 cells; type: cell-based; conditions: for activity at 10 µM: Homo sapiens, HEK293, 24 h, GFP signal percentage of DMSO control with SEM, HEK-293 cells, read-out: autophagy at 10 μM (%); for activity at 10 µM / effect on autophagy (in words): 10 μM
[4] = test system: PREP-catalyzed α-synuclein dimerization in N2A cells; conditions: luminescence signal percentage of DMSO control with SEM, ref Kilpeläinen et al.[16]; cited from earlier work

T1 sequence (P23687 whole entry): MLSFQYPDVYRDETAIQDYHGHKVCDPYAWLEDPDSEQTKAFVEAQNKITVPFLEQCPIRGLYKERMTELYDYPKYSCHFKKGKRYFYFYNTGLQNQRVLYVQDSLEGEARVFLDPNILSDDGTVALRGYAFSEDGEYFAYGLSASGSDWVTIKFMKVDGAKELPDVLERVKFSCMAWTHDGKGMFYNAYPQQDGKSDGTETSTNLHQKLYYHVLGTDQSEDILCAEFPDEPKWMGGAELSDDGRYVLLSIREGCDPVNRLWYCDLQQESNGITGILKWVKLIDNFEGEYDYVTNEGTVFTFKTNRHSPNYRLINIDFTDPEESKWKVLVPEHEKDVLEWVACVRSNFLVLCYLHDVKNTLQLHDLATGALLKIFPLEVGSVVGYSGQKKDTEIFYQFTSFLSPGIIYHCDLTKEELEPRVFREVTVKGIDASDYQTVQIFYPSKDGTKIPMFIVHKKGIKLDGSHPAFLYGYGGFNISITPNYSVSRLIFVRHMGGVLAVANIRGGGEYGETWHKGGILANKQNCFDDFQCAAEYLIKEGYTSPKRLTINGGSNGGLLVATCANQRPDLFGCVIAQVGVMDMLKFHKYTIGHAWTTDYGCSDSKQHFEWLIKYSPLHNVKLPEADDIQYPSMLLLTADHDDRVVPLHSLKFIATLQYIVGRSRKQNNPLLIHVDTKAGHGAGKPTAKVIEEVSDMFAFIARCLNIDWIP

| Structure (SMILES) | IC50 ([2]; recombinant porcine PREP) [nM] | activity at 10 µM ([1]; 10 μM) [%] | activity at 10 µM [3] [%] | effect on αSyn dimerization (in words) ([1]; 10 μM) | effect on autophagy (in words) [3] | further results |
| --- | --- | --- | --- | --- | --- | --- |
| CC(C)C[C@@H](C=O)NC(=O)[C@H](CC(C)C)NC(=O)[C@H](CC(C)C)NC(=O)OCc1ccccc1 [MG-132, reference compound] (Cbz-Leu-Leu-Leu-aldehyde) |  |  |  |  |  | increase of aSyn dimerization compared to DMSO control ([1]; PCA): 29% |
| O=C(CCCCc1ccccc1)N1CCC[C@H]1C(=O)N1CCC[C@H]1c1ncc[nH]1 [Compound 28a] | < 1 | 110 | 102 |  |  | PREP activity at 1 nM inhibitor concentration compared to control [2]: 20% |
| CO/C1=C\C(C)=C\[C@@H](C)[C@@H](O)[C@@H](C)C/C(C)=C/C=C/[C@H](OC)[C@@H]([C@@H](C)[C@@H](O)[C@H](C)[C@@]2(O)C[C@@H](O)[C@H](C)[C@@H](C(C)C)O2)OC1=O [bafilomycin A1, reference compound] |  |  |  |  |  | increase in autophagic flux assay GFP signal compared to DMSO control ([3]; 20 nM, autophagy inhibitor control, % increase): 40% |
| O=C(CCCc1ccccc1)N1CCC[C@H]1C(=O)N1CCC[C@H]1c1cnn[nH]1 [Compound 25a] | 1100 | 104 | 93 |  |  |  |
| O=C(CCCc1cccs1)N1CCC[C@H]1C(=O)N1CCC[C@H]1c1nnn[nH]1 [Compound 17a] | 94 | 87 | 87 | maintained some activity on αSyn dimerization | slightly improved the activity in inducing autophagy |  |
| O=C(CCCc1ccccc1)N1CCC[C@H]1C(=O)N1CCC[C@H]1c1ncc[nH]1 [Compound 27a] | < 1 | 72 | 96 |  | no effect on autophagy | PREP activity at 1 nM inhibitor concentration compared to control [2]: 25%; decrease of aSyn dimerization compared to DMSO control ([1]; 10 μM, PCA, Figure S1A, % decrease): 28% |
| CC(=O)N[C@@H](CSC(=O)[C@]1([C@@H](O)C(C)C)NC(=O)[C@H](C)[C@@H]1O)C(=O)O [lactacystin, reference compound] |  |  |  |  |  | increase of aSyn dimerization compared to DMSO control ([1]; PCA): 32% |
| O=C(CCCCc1ccccc1)N1CCC[C@H]1C(=O)N1CCC[C@H]1c1nnn[nH]1 [Compound 16a] | 770 | 102 | 98 |  |  |  |
| O=C(CCc1ccccc1)N1CCC[C@H]1C(=O)N1CCC[C@H]1c1nnn[nH]1 [Compound 15a] | 1000 | 116 | 96 |  |  |  |
| Cn1nnnc1[C@@H]1CCCN1C(=O)[C@@H]1CCCN1C(=O)CCCc1ccccc1 [Compound 18a] | 520000 | 105 | 88 | lost the activity on αSyn dimerization | capable of inducing autophagy |  |
| CN(CC(=O)N1CCC[C@H]1c1nnn[nH]1)C(=O)CCCc1ccccc1 [Compound 1c] |  |  | 84 |  | some effect | α-synuclein dimerization at 10 μM (%) [4]: 75 ^e (7.7) % |
| CN(CC(=O)N1CCC[C@H]1c1nnn[nH]1)C(=O)CCc1ccccc1 [Compound 15c] |  | 95 | 95 |  |  |  |
| O=C(CCCc1ccccc1)N1CCC[C@H]1C(=O)N1CCC[C@H]1c1nnc[nH]1 [Compound 20a] |  | 96 | 87 | no activity on αSyn dimerization | some minor activity in modulating autophagy |  |
| C[C@@H](C(=O)N1CCC[C@H]1c1nnn[nH]1)N(C)C(=O)CCCc1ccccc1 [Compound 1d] |  |  | 93 |  | no significant activity | α-synuclein dimerization at 10 μM (%) [4]: 75 ^e (7.3) % |
| O=C(CCc1ccccc1)N1CCC[C@H]1C(=O)N1CCC[C@H]1c1ncc[nH]1 [Compound 26a] | < 1 | 89 | 102 | still retaining some modulating activity |  | PREP activity at 1 nM inhibitor concentration compared to control [2]: 41% |
| O=C(CCCc1ccccc1)N1CCC[C@H]1C(=O)N1CCC[C@H]1c1ccn[nH]1 [Compound 30a] |  | 99 | 89 | no activity on αSyn dimerization | some minor activity in modulating autophagy | IC50 value (in words) ([2]; recombinant porcine PREP): micromolar range |
| C[C@H](NC(=O)CCCc1cccs1)C(=O)N1CCC[C@H]1c1nnn[nH]1 [Compound 17b] | 1100 | 93 | 92 | inactive for both functions | inactive for both functions |  |
| C[C@H](NC(=O)CCCc1ccccc1)C(=O)N1CCC[C@H]1c1nnc[nH]1 [Compound 20b] |  | 110 | 91 |  |  |  |
| O=C(CCCc1ccccc1)N1CCC[C@H]1C(=O)N1CCC[C@H]1c1cnc[nH]1 [Compound 29a] | 44 | 98 | 92 | no activity on αSyn dimerization | some minor activity in modulating autophagy |  |
| Cn1nnc([C@@H]2CCCN2C(=O)[C@@H]2CCCN2C(=O)CCCc2ccccc2)n1 [Compound 19a] |  | 101 | 85 | lost the activity on αSyn dimerization | capable of inducing autophagy |  |
| C[C@H](NC(=O)CCCc1ccccc1)C(=O)N1CCC[C@H]1c1ncc[nH]1 [Compound 27b] | 2100 | 110 | 106 | did not retain either of the activities | did not retain either of the activities |  |
| CO[C@H]1C[C@@H]2CC[C@@H](C)[C@@](O)(O2)C(=O)C(=O)N2CCCC[C@H]2C(=O)O[C@H]([C@H](C)C[C@@H]2CC[C@@H](O)[C@H](OC)C2)CC(=O)[C@H](C)/C=C(\C)[C@@H](O)[C@@H](OC)C(=O)[C@H](C)C[C@H](C)/C=C/C=C/C=C/1C [rapamycin, reference compound] |  |  |  |  |  | decrease in autophagic flux assay GFP signal compared to DMSO control ([3]; 0.5 µM, positive control, % decrease): 34%; fluorescence (GFP signal) relative to DMSO control ([3]; reference for autophagy induction, in our assays): 65–70% |
| C[C@H](NC(=O)CCCCc1ccccc1)C(=O)N1CCC[C@H]1c1nnn[nH]1 [Compound 16b] | 5000 | 92 | 94 |  |  |  |
| C[C@H](NC(=O)CCc1ccccc1)C(=O)N1CCC[C@H]1c1nnn[nH]1 [Compound 15b] | 3900 | 98 | 90 |  |  |  |
| O=C(c1ncc[nH]1)[C@@H]1CCCN1C(=O)[C@@H]1CCCN1C(=O)CCCc1ccccc1 [Compound 2a, reference compound] | < 1 | 99 | 95 | lack of activity | lack of activity | PREP activity at 1 nM inhibitor concentration compared to control [2]: 43% |
